Reference: patent US20150203474A1, “SOLID FORMS COMPRISING INHIBITORS OF HCV NS5A, COMPOSITIONS THEREOF, AND USES THEREWITH” (PRESIDIO PHARMACEUTICALS ,INC., priority 2012, published 2015)
In brackets after ≈: the same amount, converted by molar mass. Where two headings read alike, the source gives them in different places.

What was measured:
[1] = PK study of Form I of Compound II in monkeys; assay type: in vivo; conditions: PO dose of 75 mg/kg; for concentration at 0.083 h / concentration at 0.25 h / concentration at 0.5 hr / concentration at 1 hr / concentration at 2 hr / concentration at 4 hr / concentration at 6 hr / concentration at 8 hr / concentration at 24 h: male, cynomolgus monkey, plasma, po, 75 mg/kg
Experimental: The pharmacokinetics (PK) properties of Form A of Compound I and Form I of Compound II were determined in a series of comprehensive experiments in preclinical species including Sprague-Dawley rats, beagle dogs, cynomolgus monkeys. In those studies, the Form A crystalline salt of Compound I (and Form I crystalline salt of Compound II) was formulated in saline, 0.5% MC in saline or other commonly used suitable formulation vehicles to give a clear solution or as a suspension or a paste depending on the concentration intended to reach and the choice of vehicles. Dosing was by oral gavage. Blood samples were drawn and placed into individual tube containing K2EDTA. Blood samples were put on ice and centrifuged (2000 g for 5 minutes at 4° C.) to obtain plasma within 15 minutes after collection. Plasma samples were stored at approximately −80° C. freezer until analysis. For most of these analyses, Compound I (and Compound II) and the internal standard (IS) were extracted from rat, monkey or dog plasma by protein precipitation, and the extract was evaporated, reconstituted and analyzed using HPLC with tandem mass spectrometric detection (HPLC-MS/MS), see examples for further details. Calibration was accomplished by weighted linear regression of the ratio of the peak area of analyte to that of the added internal standard (IS). For the validated assay in rat and monkey EDTA plasma, the Lower Limit of Quantitation (LLOQ) for both compound 1 and 2 was 5.00 ng/mL, and the assay was linear from 5.00-1,000 ng/mL. PK parameters were calculated by non-compartmental analysis using WinNonlin (versions 4.1 through 6.1). Non-naïve Cynomolgus monkeys, 3.2-3.5 kg, male Dosing solution was prepared by dissolving 682.96 mg of Form I of Compound II in 82.558 mL of 0.5% MC in saline, vortexing for 5 min and sonicating for 18 min to obtain a homogenous solution. The above solution was given to the animals at 10 mL/kg via intragastric administration To collect blood samples, the animals were restrained manually and approx. 0.6-1 mL blood/time point was collected from cephalic or sephanous veins into pre-cooled EDTA tubes. Blood samples were put on ice and centrifuged at 4° C. to obtain plasma within 30 minutes of sample collection. Plasma samples were stored at −70° C. until analysis. • Instrument LC-MS/MS (API4000) • MS conditions Positive ion, EST • HPLC conditions Mobile Phase A: H2O—0.025% formic acid—1 mM NH4OAc • Mobile Phase B: MeOH—0.025% formic acid—1 mM NH4OAc • Column: Boston Crest ODS-C18 (2.1×50 mm, 5 μm) • Flow rate: 0.40 mL/min • Compound II retention time: 2.30 min; • IS retention time: 2.29 min • Sample preparation An aliquot of 20 μL plasma sample was protein precipitated with […] which contains 5 ng/mL IS (P1100970-1). The mixture was vortexed for 2 min, and then centrifuged at 12000 rpm for 5 min. an aliquot of 5 μL supernatant was injected onto the LC-MS/MS system.

[2] = Solubility of Form I and free base compound 4-3 (visual and HPLC assay of filtrate); assay type: physicochemical; conditions: for solubility at 24 h: thermodynamic from solid; for solubility at 24 h / HPLC Solubility / Visual Solubility (observation in words): target conc. 2.0 mg/mL; for pH (Filtrated): filtrate of solubility sample
Experimental: Solubility of Form I as well as the free base compound 4-3 was tested. Solubility was measured by placing a small quantity of the compound to be analyzed in a glass vial, capping and rotating the vial overnight at ambient conditions (24 hours). Target concentration was 2.0 mg/mL. The samples were filtrated with 0.45-μm filters. The subsequent filtrate was collected for HPLC assay. HPLC conditions are shown in Table 10 in Appendix A. Solubility for Form I is shown in Table 11 and for the free base compound 4-3 is shown in Table 12 in Appendix A. [table]

[3] = #0610703, read-out: plasma concentration
[4] = #0612169, read-out: plasma concentration
[5] = Mean, read-out: mean plasma concentration

For CC[C@H](C)[C@H](NC(=O)OC)C(=O)N1CCC[C@H]1c1nc2ccc(-c3ccc4cc(-c5cnc([C@@H]6CCCN6C(=O)[C@@H](NC(=O)OC)[C@@H](C)OC)[nH]5)ccc4c3)cc2[nH]1 [Form I of Compound II], the plasma concentration ([1]; Cynomolgus monkeys, 0.083 hr, #0610703) was “BQL”, the concentration at 0.083 h ([1]; 0.083 hr, #0612169, read-out: plasma concentration) was 0.00833 µg/mL and the concentration at 0.083 h ([1]; 0.083 hr, Mean, read-out: mean plasma concentration) was 0.00833 µg/mL. It also gave a concentration at 0.25 h [1, 3] of 0.0333 µg/mL, a concentration at 0.25 h [1, 4] of 0.0868 µg/mL and a concentration at 0.25 h [1, 5] of 0.0601 µg/mL. It also gave a concentration at 0.5 hr [1, 3] of 0.207 µg/mL, a concentration at 0.5 hr [1, 4] of 0.273 µg/mL and a concentration at 0.5 hr [1, 5] of 0.24 µg/mL. It also gave a concentration at 1 hr [1, 3] of 0.497 µg/mL, a concentration at 1 hr [1, 4] of 1.14 µg/mL and a concentration at 1 hr [1, 5] of 0.819 µg/mL. The concentration at 2 hr [1, 3] was 0.336 µg/mL, the concentration at 2 hr [1, 4] was 0.954 µg/mL and the concentration at 2 hr [1, 5] was 0.645 µg/mL. For the same compound, the concentration at 4 hr [1, 3] was 0.213 µg/mL, the concentration at 4 hr [1, 4] was 0.435 µg/mL and the concentration at 4 hr [1, 5] was 0.324 µg/mL. For the same compound, the concentration at 6 hr [1, 3] was 0.11 µg/mL, the concentration at 6 hr [1, 4] was 0.194 µg/mL and the concentration at 6 hr [1, 5] was 0.152 µg/mL. It also gave a concentration at 8 hr [1, 3] of 0.0559 µg/mL, a concentration at 8 hr [1, 4] of 0.0931 µg/mL and a concentration at 8 hr [1, 5] of 0.0745 µg/mL. It also gave a concentration at 24 h [1, 3] of 0.00879 µg/mL, a concentration at 24 h [1, 4] of 0.00737 µg/mL and a concentration at 24 h [1, 5] of 0.00808 µg/mL. For the same compound, the solubility at 24 h ([2]; 0.1N HCl, simulated gastric fluid, 0.1N HCl, 24 hours ambient, 0.45-μm filtrate, read-out: HPLC Solubility) was 2.07 mg/mL (≈ 2610 µM), the solubility at 24 h ([2]; 0.1N HCl, simulated gastric fluid, 0.1N HCl, read-out: Visual Solubility) was > 2 mg/mL and the “pH (Filtrated)” value ([2]; 0.1N HCl, listed as Form I) was 1.00. For the same compound, the “pH (Filtrated)” value ([2]; Water, listed as Form I) was 3.45, the “HPLC Solubility” value ([2]; Water, 24 hours ambient, 0.45-μm filtrate, listed as Form I) was 2.036 mg/mL and the solubility at 24 h ([2]; pH 2 medium, pH 2, simulated gastric fluid, pH 2 medium, 24 hours ambient, 0.45-μm filtrate, read-out: HPLC Solubility) was 2.05 mg/mL (≈ 2590 µM). For the same compound, the solubility at 24 h ([2]; pH 2 medium, pH 2, simulated gastric fluid, pH 2 medium, read-out: Visual Solubility) was > 2 mg/mL, the “pH (Filtrated)” value ([2]; pH 2 medium, listed as Form I) was 2.00 and the solubility at 24 h ([2]; pH 3 medium, pH 3, aqueous buffer, pH 3 medium, 24 hours ambient, 0.45-μm filtrate, read-out: HPLC Solubility) was 2.03 mg/mL (≈ 2560 µM). For the same compound, the solubility at 24 h ([2]; pH 3 medium, pH 3, aqueous buffer, pH 3 medium, read-out: Visual Solubility) was > 2 mg/mL, the “pH (Filtrated)” value ([2]; pH 3 medium, listed as Form I) was 2.96 and the “pH (Filtrated)” value ([2]; pH 4 medium, listed as Form I) was 3.55. The “HPLC Solubility” value ([2]; pH 4 medium, 24 hours ambient, 0.45-μm filtrate, listed as Form I) was 1.857 mg/mL, the “Visual Solubility (observation in words)” value ([2]; pH 4 medium, listed as Form I) was “A few” and the “pH (Filtrated)” value ([2]; pH 5 medium, listed as Form I) was 3.63. For the same compound, the “Visual Solubility (observation in words)” value ([2]; pH 5 medium) was “Turbid +”, the “HPLC Solubility” value ([2]; pH 5 medium, 24 hours ambient, 0.45-μm filtrate, listed as Form I) was 1.106 mg/mL and the “pH (Filtrated)” value ([2]; pH 6 medium, listed as Form I) was 5.44. For the same compound, the “Visual Solubility (observation in words)” value ([2]; pH 6 medium, listed as Form I) was “Many”, the “pH (Filtrated)” value ([2]; pH 7 medium, listed as Form I) was 6.86 and the “Visual Solubility (observation in words)” value ([2]; pH 7 medium, listed as Form I) was “Many”. The “pH (Filtrated)” value ([2]; pH 8 medium, listed as Form I) was 7.58, the “Visual Solubility (observation in words)” value ([2]; pH 8 medium, listed as Form I) was “Many” and the solubility at 24 h ([2]; water, Water, read-out: Visual Solubility) was > 2 mg/mL.
